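48-hour exposure; five concentrations; linearly interpolated endpoints. GI50: concentration for 50% inhibition of growth. The concentration for full growth arrest is given as TGI.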
Columns and labels:
Test in all cases: growth of human tumour cells (NCI), 48 h
SF-539 CNS = tested on: SF-539 CNS
OVCAR-4 ovarian = tested on: OVCAR-4 ovarian
786-0 renal = tested on: 786-0 renal
SF-295 CNS = tested on: SF-295 CNS
RPMI-8226 leukemia = tested on: RPMI-8226 leukemia
SK-MEL-28 melanoma = tested on: SK-MEL-28 melanoma
SN12C renal = tested on: SN12C renal
EKVX NSCLC = tested on: EKVX NSCLC
UACC-257 melanoma = tested on: UACC-257 melanoma
MCF7 breast = tested on: MCF7 breast

SMILES | TGI (SF-539 CNS) | TGI (OVCAR-4 ovarian) | TGI (786-0 renal) | TGI (SF-295 CNS) | TGI (RPMI-8226 leukemia) | TGI (SK-MEL-28 melanoma) | TGI (SN12C renal) | TGI (EKVX NSCLC) | TGI (UACC-257 melanoma) | GI50 (SF-539 CNS) | GI50 (OVCAR-4 ovarian) | GI50 (MCF7 breast) | TGI (MCF7 breast) | GI50 (786-0 renal) | GI50 (SF-295 CNS) | GI50 (UACC-257 melanoma) | GI50 (SK-MEL-28 melanoma) | GI50 (SN12C renal) | GI50 (EKVX NSCLC) | GI50 (RPMI-8226 leukemia)
Cc1ccc2oc(=O)cc(CC(=O)O)c2c1 | > 100 µM | > 100 µM | > 100 µM | > 100 µM | > 100 µM | > 100 µM | > 100 µM | > 100 µM | – | – | – | – | – | – | – | – | – | – | – | –
CCCCN1C(=O)C2c3[nH]c4ccccc4c3C3CCCCC3C2C1=O (mixture of isomers) | 28.6 µM | 8.22 µM | 20.2 µM | 23.7 µM | – | > 100 µM | > 100 µM | 66.8 µM | – | – | – | – | – | – | – | – | – | – | – | –
O=c1/c(=C/c2ccccc2O)sc2nc3ccccc3n12 | > 100 µM | > 100 µM | > 100 µM | > 100 µM | 64.9 µM | 71.6 µM | > 100 µM | 82 µM | > 100 µM | – | – | – | – | – | – | – | – | – | – | –
N=C(N)c1ccc(CS(=O)(=O)F)cc1 | > 100 µM | > 100 µM | > 100 µM | > 100 µM | – | > 100 µM | > 100 µM | > 100 µM | > 100 µM | > 100 µM | > 100 µM | > 100 µM | > 100 µM | > 100 µM | > 100 µM | > 100 µM | > 100 µM | > 100 µM | > 100 µM | –
COc1cccc(-c2cc(C(=O)Nc3ccc(Cl)cc3)nc(N)n2)c1 | > 100 µM | > 100 µM | > 100 µM | > 100 µM | > 100 µM | > 100 µM | > 100 µM | > 100 µM | > 100 µM | – | – | – | – | – | – | – | – | – | – | –
COc1ccc2nc(-c3ccc(Cl)cc3)cc(-c3nnc(SCC(=O)Nc4ccc(/C(C)=N\O)cc4)o3)c2c1 | 10.7 µM | 1.84 µM | 3.04 µM | 3.08 µM | > 50 µM | 7.63 µM | 7.29 µM | 15.3 µM | 9.51 µM | 3 µM | 0.904 µM | – | – | 1.02 µM | 1.09 µM | 2.16 µM | 1.81 µM | 1.8 µM | 3.01 µM | 2.18 µM
OCC(O)C(O)C(O)c1nn[nH]n1 (centres undefined) | > 100 µM | > 100 µM | > 100 µM | > 100 µM | > 100 µM | – | > 100 µM | > 100 µM | – | – | – | – | – | – | – | – | – | – | – | –
CN1C(=O)C(C)(C)NS1(=O)=O | > 100 µM | > 100 µM | > 100 µM | > 100 µM | > 100 µM | > 100 µM | > 100 µM | > 100 µM | > 100 µM | – | – | – | – | – | – | – | – | – | – | –
CCOc1cccc2sc(N)nc12 | > 100 µM | > 100 µM | > 100 µM | > 100 µM | > 100 µM | > 100 µM | > 100 µM | > 100 µM | > 100 µM | – | – | – | – | – | – | – | – | – | – | –
CCOC(=O)NC(=O)c1cn(CC(=O)NCC(=O)NCC(=O)N2CCN(CCn3c(C)nc(C(N)=O)c3N)CC2)c(=O)[nH]c1=O | > 100 µM | – | > 100 µM | > 100 µM | – | > 100 µM | > 100 µM | – | > 100 µM | – | – | – | – | – | – | – | – | – | – | –
CC1(OCc2ccccc2)C(=O)N2C1N(C(=O)OCc1ccccc1)CC2(C)C (centres undefined) | > 100 µM | > 100 µM | > 100 µM | > 100 µM | 95.7 µM | > 100 µM | > 100 µM | > 100 µM | > 100 µM | – | – | – | – | – | – | – | – | – | – | –

Source: PubChem BioAssay (NCI)
